Measurements from article PMC11356821, “A New Class of Benzo[b]thiophene-chalcones as Cholinesterase Inhibitors: Synthesis, Biological Evaluation, Molecular Docking and ADME Studies” (Molecules, 2024).

What was measured:
[1] = molecular target: electrophorus electricus AChE (Electrophorus electricus, UniProt O42275); assay: AChE inhibition, Ellman's method; format: biochemical; settings: for AChE (I %): inhibition at 50 µM; for inhibition at 50 µM: read-out: AChE (I %)
Protocol: The potential effects of the synthesized compounds 4a–4i and 5a–5i on AChE and BChE were performed using electrophorus electricus AChE and equine serum BChE due to their low cost and high degree of similarity with their respective human enzymes. For the first screenings, they are excellent and widely used in vitro models.
AChE (EC EC 3.1.1.7) from electrophorus electricus and equine serum BChE (EC 3.1.1.8) were used for the inhibitory assays. ChE inhibitory activity was evaluated using Ellman’s method, as previously described, with slight modifications. The reaction mixture was prepared by dissolving acetylthiocholine iodide (1.5 mM), 5,5’-dithiobis-2-nitrobenzoate (DTNB) (1.5 mM) and the inhibitor (at the desired concentrations) or DMSO alone (control) in 0.1 M phosphate buffer (pH 8.0) to a final volume of 200 µL. The enzyme was added to the reaction mixture and the absorbance was monitored at 405 nm as soon as it was added. This test is based on the AChE enzyme hydrolyzing acetylthiocholine to produce acetate and thiocholine. Thiocholine reacts with DTNB to produce a yellow-colored anion. For the BChE assay, we followed the same procedures as above but used BChE as the enzyme and S-butyrylthiocholine chloride (BTCI) as the substrate. […] Galantamine is considered as a positive control under the same experimental conditions.

equine serum BChE = molecular target: T1, equine serum BChE (Equus caballus, UniProt P81908); assay: biochemical; settings: for BChE (I %): inhibition at 50 µM; for inhibition at 50 µM: read-out: BChE (I %)
T1 construct: from tissue; host or cells: equine serum
Protocol: AChE (EC EC 3.1.1.7) from electrophorus electricus and equine serum BChE (EC 3.1.1.8) were used for the inhibitory assays. ChE inhibitory activity was evaluated using Ellman’s method, as previously described, with slight modifications. The reaction mixture was prepared by dissolving acetylthiocholine iodide (1.5 mM), 5,5’-dithiobis-2-nitrobenzoate (DTNB) (1.5 mM) and the inhibitor (at the desired concentrations) or DMSO alone (control) in 0.1 M phosphate buffer (pH 8.0) to a final volume of 200 µL. The enzyme was added to the reaction mixture and the absorbance was monitored at 405 nm as soon as it was added. This test is based on the AChE enzyme hydrolyzing acetylthiocholine to produce acetate and thiocholine. Thiocholine reacts with DTNB to produce a yellow-colored anion. For the BChE assay, we followed the same procedures as above but used BChE as the enzyme and S-butyrylthiocholine chloride (BTCI) as the substrate.

Solubility in DMSO = format: physicochemical
SH-SY5Y cells = assay: Cell viability, MTT assay; format: cell-based; settings: 24 h, at IC50 concentrations
Protocol: Therefore, their impact on the viability of SH-SY5Y cells (neuroblastoma cell line) has been studied. For cell viability experiments, the compounds were tested at different concentrations (0, 30, 50, 100 and 200 μM) for 24 h and analyzed using the MTT test.
Human neuroblastoma cell line SH-SY5Y was obtained from ICLC Cell bank (cat. # HTL95013). The cells were cultured in high-glucose DMEM supplemented with 10% fetal bovine serum, 100 units/mL of penicillin and 100 µg/mL of streptomycin (all from Gibco, Life sciences; Thermo Fisher Scientific, Waltham, MA, USA) and maintained at 37 °C in a humidified atmosphere of 5% CO2 and 95% air. Cell viability was detected by the colorimetric 3-(4,5 dimethylthiazol-2-yl)-2,5-diphenyltetrazolium bromide (MTT) assay, as previously described, with minor modifications. Briefly, 1.5 × 10^4 cells/well were seeded in 96-well plates and incubated for 24 h with different concentrations (30–200 μM) of compounds. After incubation, 100 μL of the MTT reagent (0.5 mg/mL in DMEM) was added, and the cells were incubated for 3 h at 37 °C. The resulting violet formazan precipitate was dissolved in DMSO and quantified by spectrophotometry at 570 nm using a microplate reader (VANTAstar_BMG LABTECH GmbH, Offenburg, Germany). Viability data were reported in the percentage of control for each compound.

electrophorus electricus AChE, sequence (O42275 24-633): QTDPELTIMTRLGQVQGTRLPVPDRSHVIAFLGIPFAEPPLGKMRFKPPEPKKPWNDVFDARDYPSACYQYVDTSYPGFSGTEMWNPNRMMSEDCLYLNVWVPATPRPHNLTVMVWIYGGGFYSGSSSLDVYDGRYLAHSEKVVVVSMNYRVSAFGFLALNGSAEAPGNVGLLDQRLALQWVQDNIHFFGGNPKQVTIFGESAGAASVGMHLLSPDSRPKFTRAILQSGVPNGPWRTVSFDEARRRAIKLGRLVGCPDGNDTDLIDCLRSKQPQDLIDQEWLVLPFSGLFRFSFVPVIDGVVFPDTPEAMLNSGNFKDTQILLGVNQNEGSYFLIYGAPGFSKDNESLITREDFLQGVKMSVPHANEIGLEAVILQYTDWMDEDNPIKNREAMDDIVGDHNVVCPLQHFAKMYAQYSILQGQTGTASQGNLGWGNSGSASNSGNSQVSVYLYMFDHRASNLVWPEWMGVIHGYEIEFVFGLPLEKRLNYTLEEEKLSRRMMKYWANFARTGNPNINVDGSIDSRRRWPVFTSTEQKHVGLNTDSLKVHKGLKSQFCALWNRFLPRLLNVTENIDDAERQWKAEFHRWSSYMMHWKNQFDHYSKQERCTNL
T1 sequence (P81908 whole entry): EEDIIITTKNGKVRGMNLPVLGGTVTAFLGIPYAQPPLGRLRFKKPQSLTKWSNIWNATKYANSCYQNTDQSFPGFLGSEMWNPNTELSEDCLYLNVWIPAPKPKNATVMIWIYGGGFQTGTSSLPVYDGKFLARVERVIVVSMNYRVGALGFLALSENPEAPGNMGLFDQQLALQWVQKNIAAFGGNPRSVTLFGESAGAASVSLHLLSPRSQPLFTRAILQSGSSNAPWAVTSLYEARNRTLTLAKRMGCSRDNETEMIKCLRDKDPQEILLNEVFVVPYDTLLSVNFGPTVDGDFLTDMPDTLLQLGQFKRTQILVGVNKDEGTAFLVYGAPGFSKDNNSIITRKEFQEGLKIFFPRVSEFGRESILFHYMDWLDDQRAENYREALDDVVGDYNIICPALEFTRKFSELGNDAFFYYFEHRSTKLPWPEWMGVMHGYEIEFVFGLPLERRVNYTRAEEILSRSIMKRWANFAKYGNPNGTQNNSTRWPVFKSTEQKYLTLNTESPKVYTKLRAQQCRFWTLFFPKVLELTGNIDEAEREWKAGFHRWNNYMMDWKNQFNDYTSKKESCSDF

SMILES | inhibition at 50 µM [1] [%] | inhibition at 50 µM (equine serum BChE) [%] | other results
c1ccc(-c2cc3ccccc3s2)cc1 [Compound 4a, 2-Phenylbenzothiophene] |  |  | AChE (I %) [1]: Ins.; BChE (I %) (equine serum BChE): Ins.; solubility in dimethyl sulfoxide (DMSO) (Solubility in DMSO): insoluble
O=[N+]([O-])c1ccc(-c2cc3ccccc3s2)cc1 [Compound 4b, 2-(4-Nitrophenyl)benzothiophene] | 8.2 | 2.29 | 
COc1ccc(-c2cc3ccccc3s2)cc1 [Compound 4c, 2-(4-Methoxyphenyl)benzothiophene] | 9.6 | 1.2 | 
N#Cc1ccc(-c2cc3ccccc3s2)cc1 [Compound 4d, 4-(Benzothiophene-2-yl)benzonitrile] |  |  | AChE (I %) [1]: Ins.; BChE (I %) (equine serum BChE): Ins.; solubility in dimethyl sulfoxide (DMSO) (Solubility in DMSO): insoluble
FC(F)(F)c1ccc(-c2cc3ccccc3s2)cc1 [Compound 4e, 2-(4-Trifluoromethylphenyl)benzothiophene] |  |  | AChE (I %) [1]: Ins.; BChE (I %) (equine serum BChE): Ins.; solubility in dimethyl sulfoxide (DMSO) (Solubility in DMSO): insoluble
Clc1ccc(-c2cc3ccccc3s2)cc1 [Compound 4f, 2-(4-Chlorophenyl)benzothiophene] |  |  | AChE (I %) [1]: Ins.; BChE (I %) (equine serum BChE): Ins.; solubility in dimethyl sulfoxide (DMSO) (Solubility in DMSO): insoluble
Cc1ccc(-c2cc3ccccc3s2)cc1 [Compound 4g, 2-(4-Methylphenyl)benzothiophene] |  |  | AChE (I %) [1]: Ins.; BChE (I %) (equine serum BChE): Ins.; solubility in dimethyl sulfoxide (DMSO) (Solubility in DMSO): insoluble
Nc1ccc(-c2cc3ccccc3s2)cc1 [Compound 4h, 2-(4-aminophenyl)benzothiophene] |  | 10.2 | 
Oc1ccc(-c2cc3ccccc3s2)cc1 [Compound 4i, 2-(4-hydroxyphenyl)benzothiophene] | 8.19 | 13.6 | 
O=C(c1ccccc1)c1c(-c2ccccc2)sc2ccccc12 [Compound 5a, 3-Benzoyl-2-phenylbenzothiophene] | 20.8 | 35.7 | IC50 (equine serum BChE): 83.4 ± 1.2 µM; cytotoxic effects on cell viability (SH-SY5Y cells): no cytotoxic effects
O=C(c1ccc([N+](=O)[O-])cc1)c1c(-c2ccc([N+](=O)[O-])cc2)sc2ccccc12 [Compound 5b, 3-(4-Nitrobenzoyl)-2-(4-nitrophenyl)benzothiophene] | 11 | 16.8 | 
COc1ccc(C(=O)c2c(-c3ccc(OC)cc3)sc3ccccc23)cc1 [Compound 5c, 3-(4-Methoxybenzoyl)-2-(4-methoxyphenyl)benzothiophene] | 3.5 | 11.9 | 
N#Cc1ccc(C(=O)c2c(-c3ccc(C#N)cc3)sc3ccccc23)cc1 [Compound 5d, 4-Cianophenyl-[2-(4-cianophenyl)-benzothiophen-3-yl]-methanone] | 4.5 | 14 | 
O=C(c1ccc(C(F)(F)F)cc1)c1c(-c2ccc(C(F)(F)F)cc2)sc2ccccc12 [Compound 5e, 3-(4-Trifluoromethylbenzoyl)-2-(4-trifluoromethylphenil)benzothiophene] | 10 | 3.1 | 
O=C(c1ccc(Cl)cc1)c1c(-c2ccc(Cl)cc2)sc2ccccc12 [Compound 5f, 3-(4-Chlorobenzoyl)-2-(4-chlorophenyl)benzothiophene] | 39.9 | 23.1 | IC50 [1]: 62.1 ± 1.2 µM; cytotoxic effects on cell viability (SH-SY5Y cells): no cytotoxic effects
Cc1ccc(C(=O)c2c(-c3ccc(C)cc3)sc3ccccc23)cc1 [Compound 5g, 3-(4-Methylbenzoyl)-2-(4-methylphenyl)benzothiophene] | 28.3 | 13.1 | 
Nc1ccc(C(=O)c2c(-c3ccc(N)cc3)sc3ccccc23)cc1 [Compound 5h, 3-(4-aminobenzoyl)-2-(4-aminophenyl)benzothiophene] |  | 58.3 | IC50 (equine serum BChE): 24.3 ± 0.5 µM; cytotoxic effects on cell viability (SH-SY5Y cells): no cytotoxic effects
O=C(c1ccc(O)cc1)c1c(-c2ccc(O)cc2)sc2ccccc12 [Compound 5i, 3-(4-hydroxybenzoyl)-2-(4-hydroxyphenyl)benzothiophene] | 19.3 | 42.2 | IC50 (equine serum BChE): 59.6 ± 11.6 µM; cytotoxic effects on cell viability (SH-SY5Y cells): no cytotoxic effects
